Laboratory results reported in EP4722195A1, “PH-SENSITIVE CATIONIC LIPID AND LIPID NANOPARTICLES” (National University Corporation Hokkaido University, priority 2023, dated 2024).
Read-outs that look alike come from different tables or passages of the source.

Key:
[1] = Average particle size and polydispersity index of lipid nanoparticles (dynamic light scattering); format: physicochemical
Experimental: (§1) The average particle size (number average value), ζ-average particle size, and polydispersity index (PdI) of the lipid nanoparticles in PBS(-) (pH 7.4), and the zeta potential in 10 mM HEPES buffer (pH 7.4) were measured using an analyzer "Zetasizer Nano ZS ZEN3600" (manufactured by Malvern) utilizing dynamic light scattering.

[2] = Zeta potential of lipid nanoparticles; format: physicochemical
Experimental: as §1

[3] = Encapsulation rate of lipid nanoparticles (Ribogreen); format: physicochemical
Experimental: The encapsulation rate of the lipid nanoparticles was determined by measuring the amount of encapsulated nucleic acid (mRNA) using Ribogreen (manufactured by Life Technologies), which is an RNA intercalator. The mRNA amount was quantified based on a calibration curve prepared from a series of diluted mRNA solutions at known concentrations.
Specifically, 10 mM HEPES buffer (pH 7.4), 10 w/v% Triton X-100, and Ribogreen were mixed at 978.8 µL, 20 µL, and 1.25 µL per 10 wells, respectively, to obtain a Triton(+) buffer. A Triton(-) buffer was obtained in replacing Triton X-100 with 10 mM HEPES buffer (pH 7.4). 100 µL/well of the sample was added to a black 96-well plate for fluorescence measurement, and 100 µL/well of Triton(+) buffer or Triton(-) buffer was added. After the plate was gently shaken on a shaking incubator (SI-300, manufactured by AS ONE) (700 rpm, 30 seconds), the fluorescence intensity of each well was measured using a microplate reader (VARIOSKAN LUX, manufactured by Thermo Fisher Scientific) (wavelength Ex/Em=500 nm/525 nm), and the nucleic acid encapsulation rate (%) was calculated.

liver = assay: EGFP expression in liver tissue sections of mice administered EGFP mRNA-loaded lipid nanoparticles (confocal microscopy); format: in vivo, Balb/c mice; details: Example 27, Fig. 6; EGFP mRNA-loaded lipid nanoparticles TxT/DSPC/chol/PEG-DMG=50/3/47/1.5 (mol%); 24 hours post-administration
Experimental: Subsequently, each EGFP mRNA-loaded lipid nanoparticle was administered to Balb/c mice at a dose of 0.2 mg mRNA/kg. At 23 hours and 50 minutes post-administration, fluorescently labeled lectin (DyLight-649 Lycopersicon (Tomato) Lectin) was intravenously injected via the tail vein at 40 µg/mouse to fluorescently label vascular endothelial cells. At 24 hours after administration of the lipid nanoparticles, the mice were euthanized, and their livers were collected to prepare tissue sections. For nuclear staining, the tissue sections were immersed in a nuclear staining solution (1 µg/mL Hoechst 33342 dissolved in PBS(-)), cooled on ice, and incubated for at least 30 minutes in the dark. The stained tissue sections were then observed using a confocal laser scanning microscope. Subsequently, in the same manner as Example 26, each EGFP mRNA-loaded lipid nanoparticle was administered to Balb/c mice. At 23 hours and 50 minutes post-administration, fluorescently labeled lectin was administered. At 24 hours after administration of the lipid nanoparticles, the mice were euthanized, and their livers were collected to prepare tissue sections. Each tissue section was observed using a confocal laser scanning microscope. In the figure, the upper panels show fluorescence images of EGFP, and the lower panels show fluorescence images of vascular endothelial cells (fluorescently labeled lectin).

[4] = Apparent pKa of lipid nanoparticles (TNS)
Experimental: (§2) The apparent pKa of the lipid nanoparticles was measured using p-toluenesulfonic acid (TNS). First, TNS (final concentration: 0.75 µM) and lipid nanoparticles (final concentration: 30 µM) were mixed in a buffer (200 mL) adjusted to each pH (pH 3.5 to 9.5). As the buffer, 20 mM citrate buffer, 20 mM sodium phosphate buffer, or 20 mM Tris-HCl buffer containing 130 mM NaCl was used. The fluorescence intensity of the prepared mixture was measured using a fluorescence spectrophotometer (Varioskan Lux, manufactured by Thermo Fisher Scientific) with the settings of λex=321 nm and λem=447 nm. Among the measured values, the highest value and the lowest value were set as 100% and 0% ionization degrees, respectively, and the pH showing a 50% ionization degree was calculated as the apparent pKa. The content ratio (%) of cationically charged pH-sensitive cationic lipid was calculated using the Henderson-Hasselbalch equation.

[5] = lipid nanoparticles, tns
Experimental: as §2

[6] = Table 3, Fluc mRNA-loaded lipid nanoparticles, TxT/DSPC/chol/PEG-DMG=50/3/47/1.5 (mol%)
[7] = Table 5, EGFP mRNA-loaded lipid nanoparticles, TxT/DSPC/chol/PEG-DMG=50/3/47/1.5 (mol%), total flow rate 3.0 mL/min
[8] = Table 1, Fluc mRNA-loaded lipid nanoparticles, TxT/DSPC/chol/PEG-DMG=50/15/35/1.5 (mol%)
[9] = Table 4, Fluc mRNA-loaded lipid nanoparticles, TxT-5-5A14/DSPC/chol/PEG-DMG=50/3/47/1.5, SM-102, ALC-0315 or MC3/DSPC/chol/PEG-DMG=50/10/40/1.5 (mol%)
[10] = Table 8 (Example 32), lipid nanoparticles for TTR-targeted genome editing, Cas9-mRNA and TTR-gRNA 1:2 (N/P = 6.0), TxT/DSPC/chol/PEG-DMG = 50/3/47/1.5 (mol%)
[11] = Table 7, hEPO mRNA-loaded lipid nanoparticles, TxT/DSPC/chol/PEG-DMG=50/3/47/1.5, SM-102/DSPC/chol/PEG-DMG=50/10/40/1.5 (mol%)

Row | Pdl [1, 6] | number average particle size [1, 6] | ζ-average particle size [1, 6] | Pdl [1, 7] | number average particle size [1, 7] | ζ-average particle size [1, 7] | ζ-potential [2, 6] | ζ-potential [2, 7] | mRNA concentration [3, 6] | mRNA encapsulation rate [3, 6] | mRNA concentration [3, 7] | mRNA encapsulation rate [3, 7] | pKa [4, 6] | Pdl [1, 8] | number average particle size [1, 8] | ζ-average particle size [1, 8] | ζ-potential [2, 8] | mRNA concentration [3, 8] | mRNA encapsulation rate [3, 8] | Compound | fluorescence of EGFP in the liver tissues (liver) | other results
1 | 0.07 | 69.3 nm | 89.4 nm | 0.06 | 80.1 nm | 101.1 nm | -7.4 mV | -8.9 mV | 0.018 µg/µL | 99.2% | 0.016 µg/µL | 99.1% | 4.90 | – | – | – | – | – | – | CCCCCCCCC(CCCCCC)CNC(=O)CCCC(=O)OCC(COC(=O)CCCC(=O)NCC(CCCCCC)CCCCCCCC)(COC(=O)CCCC(=O)NCC(CCCCCC)CCCCCCCC)NC(=O)CCN1CCCCC1 (stereo not drawn) [TxT-5-5A16β, 2-(((5-((2-hexyldecyl)amino)-5-oxopentanoyl)oxy)methyl)-2-(3-(piperidin-1-yl)propanamido)propane-1,3-diyl bis(5-((2-hexyldecyl)amino)-5-oxopentanoate)] | fluorescence of EGFP was observed | –
2 | – | – | – | – | – | – | – | – | – | – | – | – | – | 0.30 | 110.3 nm | 255.9 nm | -18.0 mV | 0.009 µg/µL | 73.4% | CCCCC(CC)CNC(=O)CCCC(=O)OCC(COC(=O)CCCC(=O)NCC(CC)CCCC)(COC(=O)CCCC(=O)NCC(CC)CCCC)NC(=O)CCN1CCCCC1 (stereo not drawn) [TxT-5-5A8β, 2-(((5-((2-ethylhexyl)amino)-5-oxopentanoyl)oxy)methyl)-2-(3-(piperidin-1-yl)propanamido)propane-1,3-diyl bis(5-((2-ethylhexyl)amino)-5-oxopentanoate)] | – | –
3 | – | – | – | – | – | – | – | – | – | – | – | – | – | – | – | – | – | – | – | CCCCCCCCC(CCCCCC)C(=O)OCCCCCCN(CCCCO)CCCCCCOC(=O)C(CCCCCC)CCCCCCCC (stereo not drawn) [ALC-0315, reference compound] | – | Pdl [1, 9]: 0.13; number average particle size [1, 9]: 57.0 nm; ζ-average particle size [1, 9]: 86.0 nm; ζ-potential [2, 9]: -2.1 mV; mRNA concentration [3, 9]: 0.025 µg/µL; mRNA encapsulation rate [3, 9]: 98.4%; pKa [4, 9]: 6.27
4 | – | – | – | – | – | – | – | – | – | – | – | – | – | 0.19 | 61.6 nm | 92.9 nm | -5.3 mV | 0.005 µg/µL | 23.7% | CCCCN(CCCC)C(=O)CCCC(=O)OCC(COC(=O)CCCC(=O)N(CCCC)CCCC)(COC(=O)CCCC(=O)N(CCCC)CCCC)NC(=O)CCN1CCCCC1 [TxT-5-5A8, 2-(((5-(dibutylamino)-5-oxopentanoyl)oxy)methyl)-2-(3-(piperidin-1-yl)propanamido)propane-1,3-diyl bis(5-(dibutylamino)-5-oxopentanoate)] | – | –
5 | 0.14 | 92.2 nm | 133.1 nm | 0.10 | 85.3 nm | 129.5 nm | -8.9 mV | -4.2 mV | 0.022 µg/µL | 96.5% | 0.021 µg/µL | 97.3% | – | – | – | – | – | – | – | 2-(6-(didodecylamino)-2,6-dioxohexyl)-2-(3-(piperidin-1-yl)propanamido)propane-1,3-diyl bis(5-(didodecylamino)-5-oxopentanoate) [TxT-5-5A24] | fluorescence of EGFP was observed | average particle diameter, comparison among TxT lipids ([1]; Example 32, Table 8, lipid nanoparticles for TTR-targeted genome editing): smallest average particle diameter; Pdl [1, 10]: 0.12; number average particle size [1, 10]: 53.1 nm; ζ-average particle size [1, 10]: 73.8 nm; ζ-potential [2, 10]: -6.5 mV; mRNA concentration [3, 10]: 0.541 µg/µL; mRNA encapsulation rate [3, 10]: 98.4%; gene expression in hepatocytes (liver): notably high levels of gene expression; pKa [5]: 6.68
6 | 0.17 | 60.2 nm | 95.7 nm | 0.14 | 71.1 nm | 103.3 nm | -9.7 mV | -11.6 mV | 0.022 µg/µL | 98.8% | 0.024 µg/µL | 98.3% | 5.38 | – | – | – | – | – | – | CCCCCCC(CCCCCC)COC(=O)CCCC(=O)OCC(COC(=O)CCCC(=O)OCC(CCCCCC)CCCCCC)(COC(=O)CCCC(=O)OCC(CCCCCC)CCCCCC)NC(=O)CCN1CCCCC1 [TxT-5-5E14, bis(2-hexyloctyl) O,O'-(2-(((5-((2-hexyloctyl)oxy)-5-oxopentanoyl)oxy)methyl)-2-(3-(piperidin-1-yl)propanamido)propane-1,3-diyl) diglutarate] | fluorescence of EGFP was observed | –
7 | – | – | – | – | – | – | – | – | – | – | – | – | – | – | – | – | – | – | – | CCCCCCCCCCCOC(=O)CCCCCN(CCO)CCCCCCCC(=O)OC(CCCCCCCC)CCCCCCCC [SM-102, reference compound] | – | Pdl [1, 9]: 0.21; number average particle size [1, 9]: 42.0 nm; ζ-average particle size [1, 9]: 70.4 nm; Pdl [1, 11]: 0.19; number average particle size [1, 11]: 38.6 nm; ζ-average particle size [1, 11]: 78.8 nm; ζ-potential [2, 9]: -11.0 mV; ζ-potential [2, 11]: 0.0 mV; mRNA concentration [3, 9]: 0.018 µg/µL; mRNA encapsulation rate [3, 9]: 99.6%; mRNA concentration [3, 11]: 0.015 µg/µL; mRNA encapsulation rate [3, 11]: 97.5%
8 | – | – | – | – | – | – | – | – | – | – | – | – | – | 0.42 | 213.0 nm | 426.0 nm | -36.4 mV | 0.012 µg/µL | 56.5% | CCCCCN(CCCCC)C(=O)CCCC(=O)OCC(COC(=O)CCCC(=O)N(CCCCC)CCCCC)(COC(=O)CCCC(=O)N(CCCCC)CCCCC)NC(=O)CCN1CCCCC1 [TxT-5-5A10, 2-(((5-(dipentylamino)-5-oxopentanoyl)oxy)methyl)-2-(3-(piperidin-1-yl)propanamido)propane-1,3-diyl bis(5-(dipentylamino)-5-oxopentanoate)] | – | pKa ([4]; Table 1, apparent pKa of Fluc mRNA-loaded lipid nanoparticles, TxT/DSPC/chol/PEG-DMG=50/15/35/1.5 (mol%)): 7.94
9 | 0.08 | 98.6 nm | 136.8 nm | 0.08 | 110.1 nm | 140.9 nm | -3.7 mV | -7.4 mV | 0.019 µg/µL | 98.4% | 0.021 µg/µL | 96.2% | 6.49 | – | – | – | – | – | – | CCCCCCCCCCN(CCCCCCCCCC)C(=O)CCC(=O)OCC(COC(=O)CCC(=O)N(CCCCCCCCCC)CCCCCCCCCC)(COC(=O)CCC(=O)N(CCCCCCCCCC)CCCCCCCCCC)NC(=O)CCN1CCCCC1 [TxT-5-4A20, 2-(((4-(didecylamino)-4-oxobutanoyl)oxy)methyl)-2-(3-(piperidin-1-yl)propanamido)propane-1,3-diyl bis(4-(didecylamino)-4-oxobutanoate)] | not detectable | –
